Measured values from PMC12377485, “Targeting the ANXA8–SP1–PPA1 Axis to Modulate TCA Cycle and Matrix Deposition in Diffuse-Type Gastric Cancer” (Research, 2025).

Target: T1, ANXA8 (Homo sapiens, UniProt P13928)
T1 construct: commercial recombinant protein (MCE); His tag implied by RED-tris-NTA labelling
T1 sequence (P13928 1-327): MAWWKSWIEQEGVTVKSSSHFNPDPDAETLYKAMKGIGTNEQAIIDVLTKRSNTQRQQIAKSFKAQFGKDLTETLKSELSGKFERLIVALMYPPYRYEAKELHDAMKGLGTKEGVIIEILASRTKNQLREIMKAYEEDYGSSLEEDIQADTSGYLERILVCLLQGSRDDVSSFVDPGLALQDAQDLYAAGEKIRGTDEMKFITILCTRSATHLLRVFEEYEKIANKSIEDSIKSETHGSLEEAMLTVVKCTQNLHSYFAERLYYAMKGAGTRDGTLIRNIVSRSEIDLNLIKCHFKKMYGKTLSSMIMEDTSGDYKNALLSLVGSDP
Assay: microscale thermophoresis (Monolith NT.[…]), one-site fit
Format: binding

Compound: CCCCNc1ncc2c(-c3ccc(CN4CCN(C)CC4)cc3)cn([C@H]3CC[C@H](O)CC3)c2n1 [UNC2025]
- Kd: 83.5 nM
